Data as given in patent US12648943B2, “Treatment of adrenocortical carcinoma with selective glucocorticoid receptor modulators (SGRMs) and antibody checkpoint inhibitors” (Corcept Therapeutics Incorporated, priority 2020, dated 2026).
Entries after “also recorded” stand apart in the source; their conditions may differ.

Assays:
[1] = test system: human NK cells; assay: Cytokine secretion by isolated human NK cells stimulated with IL-2; assay type: cell-based; details: for Cytokine secretion (both transcript and secreted protein): cortisol alone or cortisol plus relacorilant
Method: (§1) Given the prominent suppression of NK related genes in GC+ cases, the direct effects of GR modulation of human NK cells were assessed. NK cells were isolated from healthy donors and stimulated with IL-2. Activation (abundance of CD25+CD69+ cells) was increased by stimulation, suppressed by cortisol, and restored by relacorilant (Mann-Whitney p=0.0039) (FIG. 11A). […] (FIG. 12D).

[2] = test system: human NK cells; assay: Activation of isolated human NK cells stimulated with IL-2 (CD25+CD69+ cells); assay type: cell-based; details: NK cells from healthy donors, IL-2 stimulated; cortisol alone or cortisol plus relacorilant; Mann-Whitney p=0.0039
Method: as §1

[3] = test system: K562 tumor cells; assay: K562 tumor cell killing by human NK cells in vitro; assay type: cell-based; details: for Tumor cell killing by NK cells at 5:1 ratio: 5:1 effector:tumor cell ratio, Mann-Whitney p=0.004; for Tumor cell killing by NK cells: various NK:tumor cell ratios, cortisol alone or cortisol plus relacorilant
Method: Activation, proliferation, and cytokine secretion are all indicative of a functional change in NK cells mediated by cortisol and relacorilant. To determine if this functional change also affected target cell killing, NK cells were incubated with K562 tumor cells. At various NK:tumor cell ratios, cortisol suppressed tumor cell killing and relacorilant restored it (FIG. 13A). […] Thus, glucocorticoids suppress tumor cell killing by human NK cells in vitro.

[4] = test system: human NK cells; assay: Proliferation of isolated human NK cells stimulated with IL-2; assay type: cell-based; details: NK cells from healthy donors, IL-2 stimulated; cortisol alone or cortisol plus relacorilant; Mann-Whitney p=0.0099
Method: as §1

[5] = test system: human NK cells; assay: Gene expression in isolated human NK cells stimulated with IL-2; assay type: cell-based; details: for Expression of IL2RA (IL2 receptor) / Expression of LAG3 / Transcription of IFNG (IFNγ): IL-2 stimulated human NK cells; for Expression of IL2RA (IL2 receptor) / Expression of LAG3 / Transcription of IFNG (IFNγ) / Expression of 4-1BB (CD137 tnfrsf9): cortisol alone or cortisol plus relacorilant; for Expression of 4-1BB (CD137 tnfrsf9): stimulated human NK cells
Method: as §1

[6] = test system: tyrosine aminotransferase (TAT) in HepG2 cells; details: cited from earlier work
[7] = IL-2 stimulated human NK cells, relacorilant relative to cortisol alone

SMILES	Cytokine secretion (both transcript and secreted protein) ([1]; IL-2 stimulated human NK cells)	interferon γ (IFNγ) secretion [1, 7]	Secretion of other effector cytokines ([1]; human NK cells)	NK cell activation (abundance of CD25+CD69+ cells) [2]	Tumor cell killing by NK cells at 5:1 ratio [3]	Tumor cell killing by NK cells [3]	Proliferation of NK cells [4]	Expression of IL2RA (IL2 receptor) [5]	Expression of LAG3 [5]	Transcription of IFNG (IFNγ) [5]	Expression of chemokine ligand 3-like 1 (ccl3l1) ([5]; stimulated NK cells)	Expression of 4-1BB (CD137 tnfrsf9) [5]	Activity of tyrosine aminotransferase (TAT) [6]	Granzyme A secretion [1, 7]	tumor necrosis factor (TNFα) secretion [1, 7]
C[C@]12CCC(=O)C=C1CC[C@@H]1[C@@H]2[C@@H](O)C[C@@]2(C)[C@H]1CC[C@]2(O)C(=O)CO [cortisol, reference compound]	suppressed	suppressed	suppressed	suppressed	significant decrease	suppressed	suppressed	suppressed	suppressed	suppressed	suppressed	suppressed	–	–	–
CC#C[C@]1(O)CC[C@H]2[C@@H]3CCC4=CC(=O)CCC4=C3[C@@H](c3ccc(N(C)C)cc3)C[C@@]21C [mifepristone]	–	–	–	–	–	–	–	–	–	–	–	–	decreases	–	–
Cn1cc(S(=O)(=O)N2CCC3=Cc4c(cnn4-c4ccc(F)cc4)C[C@]3(C(=O)c3cc(C(F)(F)F)ccn3)C2)cn1 [relacorilant, (R)-(1-(4-fluorophenyl)-6-((1-methyl-1H-pyrazol-4-yl)sulfonyl)-4,4a,5,6,7,8-hexahydro-1H-pyrazolo[3,4-g]isoquinolin-4a-yl)(4-(trifluoromethyl)pyridin-2-yl)methanone]	restored	improved	–	restore; also recorded: significantly improved	significant improvement; also recorded: counteracted	restore; also recorded: counteracted	restore; also recorded: significantly improved	restored; also recorded: improved	restored; also recorded: promoted; also recorded: improved	improved	–	promoted	–	improved	improved
